Measured values as given in patent US12279855B2, “Highly-timed resolved myocardial blood-oxygen-level-dependent magnetic resonance imaging” (Cedars-Sinai Medical Center, priority 2018, dated 2025).
Entries after “also recorded” stand apart in the source; their conditions may differ. Like-named read-outs stand apart in the source and are kept apart here.

Legend:
[1] = extended vasodilatory state, cited from earlier work
[2] = test system: Anesthetized dogs (intact; with chronic myocardial infarction), myocardium; test: Beat-to-beat cardiac BOLD MRI at 3T before and after regadenoson injection; assay type: in vivo, dog
Experimental: FIG. 2A-FIG. 2F depicts in accordance with various embodiments of the invention, dynamics of BOLD response at rest and under the influence of regadenoson. BOLD response was relatively flat (fluctuated within +/−5%) throughout the measurement at rest (FIG. 2A), but peaks at 2-3 minutes after regadenoson injection to 10-15% and then plateaus after 4 minutes of injection (FIG. 2B). […] BOLD response was relatively flat in Remote and Affected territories at rest (FIG. 2D). However, under the influence of regadenoson (FIG. 2E), the BOLD response remained flat in Affected myocardium, while there was a delayed but rising BOLD response in Remote myocardium peaking at approximately 5 minutes was observed (FIG. 2E). The corresponding LGE image (with evidence of infarction) of the slice and where BOLD responses were measured are shown in FIG. 2F.
Methods. The proposed cardiac BOLD MRI approach was developed based on a LRT formalism (acquisition and reconstruction) that was previously used for ungated cardiac T1 mapping. It is composed of 3 parts: (i) adiabatic T2 preparation that is repeated at a fixed interval to ensure consistent T2 weighting; (ii) repeat acquisition of a set of central k-space lines with GRE readout every other TR to serve as respiratory and cardiac navigators for reconstruction; and (iii) interleaving of a set of golden-ratio radial GRE readout lines with the navigator lines serving as LRT training data. In brief, we modeled a high-dimensional cardiac image space (cardiac motion (Uc), respiratory motion (Ur), T1 recovery time (Ut), and time after excitation (Ut)) as a low-rank tensor that is partially separable. The complete tensors of all subspaces were recovered from the frequently sampled navigator signal using LRT completion. Subsequently cardiac and respiratory phased-resolved, beat-to-beat cardiac BOLD images were reconstructed. Anesthetized dogs (intact, n=2; and with chronic myocardial infarction, n=2) underwent continuous acquisition in a 3T MRI system (Siemens, Verio) that began 1-minute prior to regadenoson injection ([…]; duration of injection=30 sec) and ended 6 minutes after regadenoson injection. The data acquisition and reconstruction schemes are illustrated in FIG. 1. Sequence parameters were: scan time: 6 mins, delay between T2prep=800 ms; TE (T2prep time)=60 ms; GRE readout (TE/TR=1.4/3.3 ms, flip angle=12°, FOV=270×270 mm2, in-plane resolution: 1.7×1.7 mm2, 1 slice of thickness: 6 mm).
Results. […] LGE images show the region where the BOLD responses were measured. […] In animals with chronic MI (FIG. 2D, FIG. 2E and FIG. 2F), rest BOLD Response was also relatively stable in the infarcted and remote myocardium. However, following regadenoson injection, there was no response in the affected (infarcted) myocardium; but in the remote myocardium, a noticeably delayed hyperemic BOLD Response was observed (compared to intact animals), which peaked ˜5 minutes after regadenoson injection and plateaued to above 25%.

[3] = intact animal, healthy myocardium, regadenoson 2.5 mg/kg over 30 sec

Structure (SMILES)	terminal half-life ([1]; literature references) [min]	terminal half-life ([1]; range printed in mixed units (min to hours), literature reference) [min]	BOLD response in Affected (infarcted) myocardium ([2]; animal with chronic MI, affected territory, regadenoson 2.5 mg/kg over 30 sec)	plateau of BOLD Response in Remote myocardium ([2]; animal with chronic MI, remote territory, regadenoson 2.5 mg/kg over 30 sec)	plateau of normalized BOLD Response [2, 3]	time after injection at which BOLD response plateaus [2, 3] [min]	time over which BOLD response rises / peaks after regadenoson injection [2, 3] [min]	BOLD response at peak after regadenoson injection ([2]; intact animal, healthy myocardium, regadenoson injection 2.5 mg/kg over 30 sec, normalized BOLD response)
Nc1nc(N/N=C/C2CCCCC2)nc2c1ncn2[C@@H]1O[C@H](CO)[C@@H](O)[C@H]1O [binodenoson]	10 to 120	–	–	–	–	–	–	–
OCCN(CCO)c1nc(N2CCCCC2)c2nc(N(CCO)CCO)nc(N3CCCCC3)c2n1 [dipyridamole]	–	40 to 600	–	–	–	–	–	–
CNC(=O)c1cnn(-c2nc(N)c3ncn([C@@H]4O[C@H](CO)[C@@H](O)[C@H]4O)c3n2)c1 [regadenoson]	33 to 108	–	remained flat; also recorded: no response	above 25%	more than 10%	4	2 to 3	10-15%
